Laboratory results published in PubChem BioAssay AID1963871 (Molecular Pharmacology Branch, DTP, NCI, 2024).

Test system: KRAS-mutant PDC multicell tumor spheroid viability
Experiment: Anticancer human tumor 521955-158-R2-J5-PDC patient-derived pancreatic carcinoma cell line growth inhibition [KRAS2]
Conditions: for IC50: curve of first compound; for viability, T/C: stronger effect = lower value
Method in brief: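 Combination screen of spheroid viability in tumor-cell co-cultures with endothelial (HUVEC) and mesenchymal stem cell stroma. Each agent was tested in half-log dilutions, topping at clinical Cmax or at 10 microM without a known Cmax.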

[1] = second compound 0.0316 µM, first compound 0.0316 µM
[2] = second compound 0.0316 µM, first compound 0.1 µM
[3] = second compound 0.0316 µM, first compound 0.316 µM
[4] = second compound 0.0316 µM, first compound 1 µM
[5] = second compound 0.0316 µM, first compound 3.16 µM
[6] = second compound 0.0316 µM, first compound 10 µM
[7] = second compound 0.1 µM, first compound 0.0316 µM
[8] = second compound 0.1 µM, first compound 0.1 µM
[9] = second compound 0.1 µM, first compound 0.316 µM
[10] = second compound 0.1 µM, first compound 1 µM
[11] = second compound 0.1 µM, first compound 3.16 µM
[12] = second compound 0.1 µM, first compound 10 µM
[13] = second compound 0.316 µM, first compound 0.0316 µM
[14] = second compound 0.316 µM, first compound 0.1 µM
[15] = second compound 0.316 µM, first compound 0.316 µM
[16] = second compound 0.316 µM, first compound 1 µM
[17] = second compound 0.316 µM, first compound 3.16 µM
[18] = second compound 0.316 µM, first compound 10 µM
[19] = second compound 1 µM, first compound 0.0316 µM
[20] = second compound 1 µM, first compound 0.1 µM
[21] = second compound 1 µM, first compound 0.316 µM
[22] = second compound 1 µM, first compound 1 µM
[23] = second compound 1 µM, first compound 3.16 µM
[24] = second compound 1 µM, first compound 10 µM
[25] = second compound 3.16 µM, first compound 0.0316 µM
[26] = second compound 3.16 µM, first compound 0.1 µM
[27] = second compound 3.16 µM, first compound 0.316 µM
[28] = second compound 3.16 µM, first compound 1 µM
[29] = second compound 3.16 µM, first compound 3.16 µM
[30] = second compound 3.16 µM, first compound 10 µM
[31] = second compound 0.0316 µM, first compound 0.00316 µM
[32] = second compound 0.0316 µM, first compound 0.01 µM
[33] = second compound 0.1 µM, first compound 0.00316 µM
[34] = second compound 0.1 µM, first compound 0.01 µM
[35] = second compound 0.316 µM, first compound 0.00316 µM
[36] = second compound 0.316 µM, first compound 0.01 µM
[37] = second compound 1 µM, first compound 0.00316 µM
[38] = second compound 1 µM, first compound 0.01 µM
[39] = second compound 3.16 µM, first compound 0.00316 µM
[40] = second compound 3.16 µM, first compound 0.01 µM
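Also: viability read after seven days of drug exposure.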

Row | SMILES | IC50 (second compound 0.0316 µM) | IC50 (second compound 0.1 µM) | IC50 (second compound 0.316 µM) | IC50 (second compound 1 µM) | IC50 (second compound 3.16 µM) | viability, T/C [1] | viability, T/C [2] | viability, T/C [3] | viability, T/C [4] | viability, T/C [7] | viability, T/C [8] | viability, T/C [9] | viability, T/C [10] | viability, T/C [13] | viability, T/C [14] | viability, T/C [15] | viability, T/C [19] | viability, T/C [20] | viability, T/C [25] | viability, T/C [26] | other results
1 | CC(C)NCC(C(=O)N1CCN(c2ncnc3c2C(C)CC3O)CC1)c1ccc(Cl)cc1 (stereo not given) + C=CC(=O)N1CCN(c2nc(OCC3CCCN3C)nc3c2CCN(c2cccc4cccc(C)c24)C3)CC1CC#N | > 10 µM | > 10 µM | > 10 µM | > 10 µM | < 0.0316 µM | 108% | 110% | 84.5% | 87.1% | 103% | 103% | 84.5% | 83.6% | 97.5% | 92.3% | 76.2% | 81.6% | 80.4% | 12.2% | 14.6% | viability, T/C [5]: 92.3%; viability, T/C [6]: 65.8%; viability, T/C [11]: 79.6%; viability, T/C [12]: 59.8%; viability, T/C [16]: 73.5%; viability, T/C [17]: 75.4%; viability, T/C [18]: 52.1%; viability, T/C [21]: 65.8%; viability, T/C [22]: 59.2%; viability, T/C [23]: 62.3%; viability, T/C [24]: 50.6%; viability, T/C [27]: 17%; viability, T/C [28]: 11.6%; viability, T/C [29]: 3.96%; viability, T/C [30]: 1.11%
2 | CC1(C)CCC(CN2CCN(c3ccc(C(=O)NS(=O)(=O)c4ccc(NCC5CCOCC5)c([N+](=O)[O-])c4)c(Oc4cnc5[nH]ccc5c4)c3)CC2)=C(c2ccc(Cl)cc2)C1 + C=CC(=O)N1CCN(c2nc(OCC3CCCN3C)nc3c2CCN(c2cccc4cccc(C)c24)C3)CC1CC#N | 4.89 µM | 4.63 µM | 2.01 µM | 1.68 µM | < 0.0316 µM | 108% | 101% | 105% | 111% | 97.7% | 100% | 99.9% | 104% | 88.5% | 97.4% | 100% | 85.6% | 89.5% | 10.6% | 8.43% | viability, T/C [5]: 77.7%; viability, T/C [6]: 4.79%; viability, T/C [11]: 72.9%; viability, T/C [12]: 4.13%; viability, T/C [16]: 103%; viability, T/C [17]: 19.3%; viability, T/C [18]: 4.17%; viability, T/C [21]: 84.6%; viability, T/C [22]: 81.7%; viability, T/C [23]: 11.3%; viability, T/C [24]: 1.35%; viability, T/C [27]: 5.9%; viability, T/C [28]: 1.39%; viability, T/C [29]: 0.22%; viability, T/C [30]: 0.27%
3 | CCN1CCN(Cc2ccc(Nc3ncc(F)c(-c4cc(F)c5nc(C)n(C(C)C)c5c4)n3)nc2)CC1 + C=CC(=O)N1CCN(c2nc(OCC3CCCN3C)nc3c2CCN(c2cccc4cccc(C)c24)C3)CC1CC#N | > 1 µM | > 1 µM | > 1 µM | > 1 µM | < 0.00316 µM | 91.8% | 85.9% | 110% | 83.6% | 87.5% | 95.8% | 106% | 84.8% | 90% | 72.3% | 104% | 80.6% | 82.5% | 16% | 11.1% | viability, T/C [31]: 93.5%; viability, T/C [32]: 107%; viability, T/C [33]: 102%; viability, T/C [34]: 94.2%; viability, T/C [35]: 85.3%; viability, T/C [36]: 106%; viability, T/C [16]: 90%; viability, T/C [37]: 89.3%; viability, T/C [38]: 78.3%; viability, T/C [21]: 84.6%; viability, T/C [22]: 81.9%; viability, T/C [39]: 19.2%; viability, T/C [40]: 19.5%; viability, T/C [27]: 4.58%; viability, T/C [28]: 0.34%
4 | Cn1ncnc1[C@H]1c2n[nH]c(=O)c3cc(F)cc(c23)N[C@@H]1c1ccc(F)cc1 + C=CC(=O)N1CCN(c2nc(OCC3CCCN3C)nc3c2CCN(c2cccc4cccc(C)c24)C3)CC1CC#N | > 0.1 µM | > 0.1 µM | > 0.1 µM | > 0.1 µM | < 0.000316 µM | 91.6% | 82.5% |  |  | 81.3% | 77.6% |  |  | 75% | 66.5% |  | 67.4% | 62.7% | 9.22% | 8.81% | viability, T/C (second compound 0.0316 µM, first compound 0.000316 µM): 111%; viability, T/C (second compound 0.0316 µM, first compound 0.001 µM): 114%; viability, T/C [31]: 103%; viability, T/C [32]: 81.4%; viability, T/C (second compound 0.1 µM, first compound 0.000316 µM): 104%; viability, T/C (second compound 0.1 µM, first compound 0.001 µM): 96.9%; viability, T/C [33]: 86.9%; viability, T/C [34]: 85.5%; viability, T/C (second compound 0.316 µM, first compound 0.000316 µM): 99.6%; viability, T/C (second compound 0.316 µM, first compound 0.001 µM): 94.4%; viability, T/C [35]: 93.9%; viability, T/C [36]: 72.3%; viability, T/C (second compound 1 µM, first compound 0.000316 µM): 78.3%; viability, T/C (second compound 1 µM, first compound 0.001 µM): 82.7%; viability, T/C [37]: 78.5%; viability, T/C [38]: 69.2%; viability, T/C (second compound 3.16 µM, first compound 0.000316 µM): 15.8%; viability, T/C (second compound 3.16 µM, first compound 0.001 µM): 10.9%; viability, T/C [39]: 10.7%; viability, T/C [40]: 8.52%
